Data: PMC6283646, “Identification and binding mode of a novel Leishmania Trypanothione reductase inhibitor from high throughput screening” (PLoS Neglected Tropical Diseases, 2018)
Like-named read-outs stand apart in the source and are kept apart here. Values belong to the molecule of their own block, whether it stands above or below them.

Tests used:
[1] = molecular target: T1, L. infantum TR (Leishmania infantum, UniProt A4HSF7); experiment: Luminescence-based (NADPH-Glo) TR enzymatic assay; type: biochemical
T1 construct: made in house
T1 sequence (A4HSF7 entry or part of it): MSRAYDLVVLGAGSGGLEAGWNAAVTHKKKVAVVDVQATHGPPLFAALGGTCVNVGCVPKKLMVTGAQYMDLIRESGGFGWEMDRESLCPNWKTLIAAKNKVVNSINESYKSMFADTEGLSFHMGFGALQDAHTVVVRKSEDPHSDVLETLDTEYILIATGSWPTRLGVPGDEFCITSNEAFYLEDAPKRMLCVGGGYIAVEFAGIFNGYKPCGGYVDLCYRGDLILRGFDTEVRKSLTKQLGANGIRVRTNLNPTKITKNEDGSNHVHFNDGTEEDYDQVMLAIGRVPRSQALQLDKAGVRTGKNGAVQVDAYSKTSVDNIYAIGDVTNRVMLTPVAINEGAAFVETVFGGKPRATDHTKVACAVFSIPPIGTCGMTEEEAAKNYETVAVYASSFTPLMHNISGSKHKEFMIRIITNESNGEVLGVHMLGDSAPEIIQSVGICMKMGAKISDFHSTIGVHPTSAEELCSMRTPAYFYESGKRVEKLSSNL
Description: (§1) L. infantum TR was cloned and purified as previously described.[9, 28] Bovine serum albumin (BSA), NADPH, auranofin, hGR, oxidized glutathione (GSSG) and DTNB were purchased from Sigma-Aldrich (St. Louis, MO); oxidized trypanothione (TS2) was purchased from Bachem (Bubendorf, Switzerland); the NADPH-Glo kit was purchased from Promega (Madison, WI, U.S.A.). Compounds, dissolved in DMSO, were transferred to 384-well white plates (Greiner Bio One, Frickenhausen, Germany) using the acoustic droplet ejection technology (ATS-100, EDC Biosystems, U.S.A.) to reach the desired final concentration. The TR enzymatic reaction was performed by addition of 0.1 nM TR, 12.5 μM NAPDH, 15 μM TS2 in 50 mM HEPES (pH 7.4), 40 mM NaCl, 0.01% BSA in a final volume of 15 μL. After 60 min of incubation at room temperature, an equal volume of NADPH-Glo reagent was added and the luminescent signal was acquired by an EnVision plate reader (PerkinElmer, Waltham, MA, U.S.A.). […] In addition, in order to make sure that the production of a reducing agent (i.e. T(SH)2) by the TR activity was not going to interfere with the assay, and in absence of T(SH)2 as purified reagent, the effect of DTT and GSH was tested on the NADPH-Glo reaction resulting in no interference at concentrations relevant for the current setup (S2 Fig). The hGR assay was performed by addition of 0.5 nM hGR, 10 μM GSSG, 20 μM NADPH in 50 mM HEPES (pH 7.4), 40 mM NaCl, 0.01% BSA in a final volume of 15 μL. After 30 min incubation at room temperature 15 μl of NADPH-Glo kit was added to reveal the signal. The 5,5′-dithiobis(2-nitrobenzoic acid) (DTNB) assay was performed using 2 nM TR, 100 μM NADPH, 4 μM TS2 and 200 μM DTNB in 40 mM HEPES (pH 7.4), 1 mM EDTA, 0.01% BSA and 0.05% tween-20 in a final volume of 50 μl. The absorbance signal (412 nm) was acquired 15 minutes post incubation at room temperature using the plate reader (Safire2, Tecan, Switzerland). Results were analyzed using Prism software (GraphPad, San Diego, CA, U.S.A.) and Vortex (Dotmatics, Bioshops Stortford, UK). Dose-response curves were fitted by four-parameter logistic regression.

[2] = molecular target: T1, L. infantum TR; experiment: DTNB absorbance-based TR assay; type: biochemical
Description: as §1, with “The 5,5′-dithiobis(2-nitrobenzoic acid) (DTNB) assay was performed using 2 nM TR, 100 μM NADPH, 4 μM TS2 and 200 μM DTNB in 40 mM HEPES (pH 7.4), 1 mM EDTA, 0.01% BSA and 0.05% tween-20 in a final volume of 50 μl.” left out

[3] = molecular target: T2, TR (Leishmania infantum, UniProt A4HSF7); set-up: method as in PMID 26033467; conditions: read-out: TS2 Km; cited from earlier work
T2 construct: made in house
T2 sequence (A4HSF7 1-491): as the sequence (A4HSF7 entry or part of it) above

[4] = molecular target: T3, human glutathione reductase (hGR) (Homo sapiens, UniProt P00390); experiment: hGR assay (NADPH-Glo); type: biochemical; conditions: for IC50: n=3
T3 construct: purchased Sigma-Aldrich
T3 sequence (P00390 44-522): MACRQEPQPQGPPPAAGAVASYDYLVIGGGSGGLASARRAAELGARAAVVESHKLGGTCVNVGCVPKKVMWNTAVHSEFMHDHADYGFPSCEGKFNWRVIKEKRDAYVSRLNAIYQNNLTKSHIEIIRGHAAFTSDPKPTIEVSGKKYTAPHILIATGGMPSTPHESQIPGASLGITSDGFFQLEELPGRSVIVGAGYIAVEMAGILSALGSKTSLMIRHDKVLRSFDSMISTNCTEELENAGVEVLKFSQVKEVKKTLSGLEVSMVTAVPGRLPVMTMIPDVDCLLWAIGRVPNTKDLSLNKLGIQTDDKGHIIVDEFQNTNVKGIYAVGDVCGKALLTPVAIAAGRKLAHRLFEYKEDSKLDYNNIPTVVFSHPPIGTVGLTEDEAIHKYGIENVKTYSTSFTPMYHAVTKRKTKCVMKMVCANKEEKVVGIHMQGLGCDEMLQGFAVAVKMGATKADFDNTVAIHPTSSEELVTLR
Description: as §1

[5] = molecular target: T2, TR; experiment: Binding assay by SPR
Method: Surface plasmon resonance (SPR) interaction analysis was performed using a Biacore T200 (GE Healthcare, Uppsala, Sweden). TR was immobilized on a CM4 chip by amine coupling according to manufacturer’s instructions (Amine Coupling Kit, GE Healthcare, Uppsala, Sweden). Briefly, the surface of the sensor chip was activated for 7 min using a mixture of 0.1 M N-hydroxy succinimide (NHS) and 0.4 M N-ethyl-N’-[3-dimethyl-aminopropyl] carbodiimide (EDC) then 25 μg/mL of TR in 10 mM sodium acetate (pH 5.0) was injected for 360 s at 10 μl/min, finally residual activated groups on the surface were blocked by a 7-min injection of 1 M ethanolamine (pH 8.5). A reference channel for background subtraction was prepared by activation with EDC/NHS mixture (0.1 M/0.4 M as per ligand immobilization), followed by blocking with 1 M ethanolamine. The binding of the selected hit to the immobilized ligand was evaluated by a multi-cycle kinetic procedure in 50 mM HEPES pH 7.4, 40 mM NaCl, 0.05% Tween-20 supplemented with 2% DMSO (Sigma Aldrich). The analyte was injected for 20 s at 30 μl/min until equilibrium and dissociation monitored for 120 s. A standard curve of DMSO was included for solvent correction. Biomolecular binding events were reported as changes of resonance units (RUs) over time. The data were analysed by the Biacore T200 evaluation software: specific sensorgrams were obtained for the analyte, by subtracting the signals of the reference channel to those of the TR-immobilized one, and corrected for DMSO interference from DMSO standard curve. The binding affinity was evaluated at steady state whereas the kinetic parameters were calculated by a one-phase association and two-phase dissociation model using the Prism software (GraphPad, San Diego, CA, U.S.A.)

[6] = molecular target: T2, TR; experiment: Competition assay with TS2 or NADPH; type: biochemical; conditions: 4, 16, 64 μM compound
Method: Competition assays were performed using three test concentrations (4, 16 and 64 μM) for the competing compounds. The reaction buffer and components were mostly identical to those used in the TR assay described above, but 1 nM TR was employed for 5 minutes against a serial dilution of either TS2 in presence of 40 μM NADPH or NADPH in presence of 30 μM TS2. The residual amount of NADPH was measured using the NADPH-Glo kit (Promega, U.S.A.) after 30 min incubation at room temperature as per the manufacturer’s protocol. The luminescent signal was measured using the EnVision plate reader (PerkinElmer, USA). IC50, Vmax, and Km values were calculated using Prism software (GraphPad, San Diego, CA, U.S.A.).
The NADPH concentration for the TS2 dilutions was 40 μM while the TS2 concentration for the NADPH dilutions was 30 μM.

[7] = test system: L. infantum promastigotes; experiment: Inhibition of promastigote growth (MTT); type: cell-based; conditions: for IC50: Leishmania infantum, 72 h, MTT
Method: Promastigote (the extracellular stage of the Leishmania life cycle) growth inhibition was evaluated using L. infantum strain (MHOM/TN/80/IPT1). […] Promastigotes were grown in Schneider’s Drosophila medium (SIGMA) containing 10% Fetal Calf Serum (FCS) (GIBCO-BRL) and 2% gentamicin (50 mg/L) (Sigma) at 22°C. Parasites were adjusted to 1 × 10^6 parasites/mL, and 200 μL of suspension was seeded in triplicate in 96-well flat bottom microplates and incubated with varying concentrations of compound. […] Each experiment was done in triplicate for each drug concentration and two independent experiments were performed. After 72 h of incubation, 30 μL of MTT was added to each well and plates were further incubated for 2 h. The absorbance at 550 nm was measured with a 96-well scanner (DINEX Technologies, VA, USA). Anti-leishmanial activity per experimental point was expressed as mean percentage of inhibition with respect to vehicle treated parasites (0%). In addition, the promastigote vitality was followed by microscopic observation after 72 h. Data were analyzed and plotted by Prism (GraphPad, San Diego, USA).

[8] = Solubility in assay buffer; type: physicochemical; conditions: aqueous buffer
[9] = Fig 5, read-out: IC50 (TR inhibition potency)

Compound: N[C@@H](CCC(=O)N[C@@H](CS)C(=O)NCC(=O)NCCCCNCCCNC(=O)CNC(=O)[C@H](CS)NC(=O)CC[C@H](N)C(=O)O)C(=O)O [TS2, N1,N8-bis(glutathionyl)spermidine]
- Km ([1]; luminescent assay, 0.5 nM TR, 12.5 μM NADPH, read-out: TS2 Km (apparent)): 13.5 ± 3.8 µM
- Km ([2]; DTNB assay, 20 nM TR, 100 μM NADPH, read-out: TS2 Km (apparent)): 3.6 ± 0.5 µM
- Km [3]: 23 ± 1 µM

Compound: CCN(CC)CCOC(=O)c1ccc(NCCC(=O)c2ccc([N+](=O)[O-])cc2)cc1 [Compound 3, 2-(Diethylamino)ethyl 4-((3-(4-nitrophenyl)-3-oxopropyl)amino)benzoate]
- IC50 [1, 9]: 7.51 ± 2.53 µM
- IC50 ([1]; n=3, read-out: TR assay IC50): 7.52 ± 2.53 µM
- IC50 ([1]; read-out: Luminescence assay IC50 (in vitro potency, TR)): 7.5 ± 2.5 µM
- IC50 ([2]; read-out: DTNB IC50): 4 ± 0.9 µM
- selectivity for TR with respect to hGR [4]: selective
- IC50 [4]: > 85 µM
- Kd ([5]; Kd from kslow/kon ratio, kslow/kon): 22.7 µM
- kon ([5]; one-phase association model): 3510 ± 1.09e+06 M⁻¹ s⁻¹
- Kd ([5]; steady state, read-out: steady state calculated Kd): 28.3 ± 5.12 µM
- kfast ([5]; two-phase dissociation model): 5.88 ± 0.96 s⁻¹
- kslow ([5]; two-phase dissociation model): 0.08 ± 0.02 s⁻¹
- competition with NADPH ([6]; 30 μM TS2): competitive for NADPH
- effect on TS2 Km ([6]; 40 μM NADPH): did not alter TS2 Km
- promastigote mortality ([7]; 72 h after treatment, up to 100 μM): 100%
- IC50 [7]: 12.4 ± 1.09 µM
- solubility [8]: > 100 µM

Compound: CN(C)C(=O)c1ccc(NCCC(=O)c2cc3ccccc3o2)cc1 [Compound 2]
- IC50 [1, 9]: 13.3 ± 2.69 µM
- IC50 ([1]; n=3, read-out: TR assay IC50): 13.3 ± 2.69 µM
- selectivity for TR with respect to hGR [4]: not selective
- IC50 [4]: 13.9 ± 3.5 µM

- IC50 [7]: 0.5 µM
Compound: C[C@@H]1[C@H](O)[C@@H](C)/C=C/C=C/C=C/C=C/C=C/C=C/C=C/[C@H](O[C@@H]2O[C@H](C)[C@@H](O)[C@H](N)[C@@H]2O)C[C@@H]2O[C@](O)(C[C@@H](O)C[C@@H](O)[C@H](O)CC[C@@H](O)C[C@@H](O)CC(=O)O[C@H]1C)C[C@H](O)[C@H]2C(=O)O [Amphotericin B, reference compound]

Compound: CC(=O)OC[C@H]1O[C@@H]([S-])[C@H](OC(C)=O)[C@@H](OC(C)=O)[C@@H]1OC(C)=O.CCP(CC)CC.[Au+] [Auranofin, reference compound]
- IC50 ([1]; dose-response, Fig 3D, read-out: potency, luminescent assay): 6.6 ± 1.05 µM
- IC50 ([2]; dose-response, Fig 3D, read-out: potency, DTNB assay): 0.154 ± 0.0107 µM

Compound: O=C(N/N=C/c1ccc([N+](=O)[O-])s1)C1CC12CCC2 (stereo not drawn) [Compound 1]
- IC50 [1, 9]: 1.76 ± 0.371 µM
